Data published in US20200002354A1, “HEXAHYDROPYRAZINOBENZ- OR -PYRIDO-OXAZEPINES CARRYING AN OXYGEN-CONTAINING SUBSTITUENT AND USE THEREOF IN THE TREATMENT OF 5-HT2C-DEPENDENT DISORDERS” (AbbVie Deutschland GmbH & Co. KG, priority 2015, published 2020).

Tests used:
5-HT2C receptor = biological target: T1, 5-HT2C receptor (Homo sapiens, UniProt P28335); test: Human 5-HT2C functional assay (beta-arrestin2 recruitment, U2OS_HTR2C_β-Arrestin cells); format: cell-based; conditions: for EC50: Potency (EC50 5-HT2C) in functional assay, agonism, read-out: EC50 5-HT2C; for Emax: relative efficacy vs maximal effect induced by 5-HT (defined as 100%)
T1 construct: host or cells: U2OS
T1 sequence (P28335 33-458): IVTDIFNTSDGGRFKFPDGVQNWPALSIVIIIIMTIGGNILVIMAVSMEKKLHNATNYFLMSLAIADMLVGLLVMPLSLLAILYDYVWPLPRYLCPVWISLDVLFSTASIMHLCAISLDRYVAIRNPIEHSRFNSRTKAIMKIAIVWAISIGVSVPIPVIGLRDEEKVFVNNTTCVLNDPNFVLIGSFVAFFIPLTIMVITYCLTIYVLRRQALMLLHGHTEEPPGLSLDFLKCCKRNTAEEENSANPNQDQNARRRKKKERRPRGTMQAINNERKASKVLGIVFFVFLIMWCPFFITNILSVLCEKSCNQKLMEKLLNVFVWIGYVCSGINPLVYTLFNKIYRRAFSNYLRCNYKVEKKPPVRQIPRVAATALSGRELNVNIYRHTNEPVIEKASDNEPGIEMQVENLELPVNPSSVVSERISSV
T1 sequence (P32121 whole entry partner): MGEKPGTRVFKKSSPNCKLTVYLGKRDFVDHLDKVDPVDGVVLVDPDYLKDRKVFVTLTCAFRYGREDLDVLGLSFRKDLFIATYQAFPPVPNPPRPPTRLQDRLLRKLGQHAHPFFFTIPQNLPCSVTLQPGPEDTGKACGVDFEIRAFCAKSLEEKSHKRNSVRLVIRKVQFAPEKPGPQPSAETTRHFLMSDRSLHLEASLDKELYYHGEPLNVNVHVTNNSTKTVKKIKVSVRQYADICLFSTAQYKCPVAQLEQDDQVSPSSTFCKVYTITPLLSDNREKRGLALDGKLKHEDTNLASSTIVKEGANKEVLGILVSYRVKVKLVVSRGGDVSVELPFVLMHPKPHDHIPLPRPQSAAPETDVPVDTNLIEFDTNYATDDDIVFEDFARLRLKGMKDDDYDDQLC
Procedure, shortened: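 U2OS cells expressing human 5-HT2C with β-arrestin2 enzyme-fragment complementation; switched to 1% serum medium 24 h after plating, compounds added next day for 1.5 h. β-Galactosidase activity read by chemiluminescence; response expressed as percent of 10 μM 5-HT or maximal 5-HT effect (relative efficacy).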

human 5-HT2A receptor = biological target: T2, human 5-HT2A receptor (Homo sapiens, UniProt P28223); test: Human 5-HT2A functional assay (calcium mobilisation in CHO-K1 cells, FLIPR); format: cell-based; conditions: based on agonism: EC50 5-HT2A/EC50 5-HT2C
T2 construct: expressed in transfected cells; host or cells: CHO-K1
T2 sequence (P28223 whole entry): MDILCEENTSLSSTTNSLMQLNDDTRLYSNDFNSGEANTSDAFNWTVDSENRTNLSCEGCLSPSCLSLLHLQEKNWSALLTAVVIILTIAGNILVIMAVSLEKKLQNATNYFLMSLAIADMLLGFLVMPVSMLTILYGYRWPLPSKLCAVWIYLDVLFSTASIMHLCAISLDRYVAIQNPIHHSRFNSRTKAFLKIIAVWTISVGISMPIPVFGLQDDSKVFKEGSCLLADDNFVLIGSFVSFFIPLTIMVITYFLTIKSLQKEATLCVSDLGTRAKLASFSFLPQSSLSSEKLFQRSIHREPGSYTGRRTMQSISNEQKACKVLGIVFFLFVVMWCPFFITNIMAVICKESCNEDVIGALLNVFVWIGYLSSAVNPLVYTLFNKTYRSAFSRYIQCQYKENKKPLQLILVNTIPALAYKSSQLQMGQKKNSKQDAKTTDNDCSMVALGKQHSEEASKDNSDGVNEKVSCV
Procedure, shortened: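 CHO-K1 cells stably expressing human 5-HT2A, serum-starved overnight and loaded with calcium dye plus 0.07% probenecid, were given compound (10^−10 to 10^−5 M) for agonism, then serotonin at 3×10^−8 M after 8 min for antagonism. FLIPR calcium responses were normalised to serotonin maximum, and EC50/IC50 came from four-parameter fits, with Kb via Cheng–Prusoff.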

human 5-HT2B receptor = biological target: T3, human 5-HT2B receptor (Homo sapiens, UniProt P41595); test: Human 5-HT2B functional assay (calcium mobilisation in CHO-FlpIn cells, FLIPR); format: cell-based; conditions: based on agonism: EC50 5-HT2B/EC50 5-HT2C
T3 construct: expressed in transfected cells; host or cells: CHO-FlpIn
T3 sequence (P41595 whole entry): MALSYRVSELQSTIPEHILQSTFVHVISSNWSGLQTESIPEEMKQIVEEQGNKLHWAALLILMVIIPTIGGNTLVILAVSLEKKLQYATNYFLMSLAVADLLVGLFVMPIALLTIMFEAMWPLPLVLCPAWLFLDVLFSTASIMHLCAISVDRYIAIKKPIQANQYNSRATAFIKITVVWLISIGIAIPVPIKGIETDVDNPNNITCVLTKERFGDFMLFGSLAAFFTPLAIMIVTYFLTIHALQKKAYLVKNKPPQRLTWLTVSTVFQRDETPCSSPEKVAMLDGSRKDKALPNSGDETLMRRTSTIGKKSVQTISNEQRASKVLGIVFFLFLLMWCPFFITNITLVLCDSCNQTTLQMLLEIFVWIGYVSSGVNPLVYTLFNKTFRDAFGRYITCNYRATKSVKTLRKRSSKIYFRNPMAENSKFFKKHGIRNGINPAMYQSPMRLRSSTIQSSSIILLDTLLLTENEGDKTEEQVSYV
Procedure, shortened: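 CHO-FlpIn cells stably expressing human 5-HT2B, serum-starved 4 h and Ca5 dye-loaded, received compound (10^−10 to 10^−5 M) for agonism, then 10^−8 M serotonin after 8 min for antagonism; peak calcium read by FLIPR. Efficacy as % serotonin maximum; EC50/IC50 from four-parameter fits, Kb via Cheng–Prusoff.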

[1] = Metabolic stability in human liver microsomes, unbound intrinsic clearance; format: in vitro ADME; conditions: liver microsomes, pH 7.4; unbound intrinsic clearance (human); Clint unbound = Cl int/fu mic; read-out: Cl int, mic unb. (h)
Procedure, shortened: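 Compound at 0.5 μM incubated with human liver microsomes (0.25 mg/mL) in 0.05 M potassium phosphate pH 7.4 at 37° C, started with 1.0 mM NADPH; sampled 0–30 min, parent quantified by LC-MS/MS. First-order t1/2 gives CLint (uL/min/mg), scaled to L/h/kg; unbound CLint = CLint/fu mic.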

Compound	EC50 (5-HT2C receptor)	Emax (5-HT2C receptor)	Selectivity over 5-HT2A (human 5-HT2A receptor)	Selectivity over 5-HT2B (human 5-HT2B receptor)	CLint scaled at 0.5 μM [1]
COC[C@H]1C[C@@H]2CNCCN2c2cc(F)cc(Cl)c2O1.Cl [Example 35, (4aR,6R)-8-Chloro-10-fluoro-6-(methoxymethyl)-2,3,4,4a,5,6-hexahydro-1H-pyrazino[2,1-d][1,5]benzoxazepine hydrochloride]	20 to 200 nM	> 70%	++ (from >30 to 100)	+ (from 10 to 30)	< 83.3 mL/min/kg
COC[C@@H]1C[C@@H]2CNCCN2c2c(F)c(F)c(OC)c(Cl)c2O1.Cl [Example 53, (4aR,6S)-8-Chloro-10,11-difluoro-9-methoxy-6-(methoxymethyl)-2,3,4,4a,5,6-hexahydro-1H-pyrazino[2,1-d][1,5]benzoxazepine hydrochloride]	20 to 200 nM	50 to 70%	+++ (>100)	+++ (>100)	83.3 to 833 mL/min/kg
COC[C@@H]1C[C@@H]2CNCCN2c2cccc(C#N)c2O1.Cl [Example 12, (4aR,6S)-6-(Methoxymethyl)-2,3,4,4a,5,6-hexahydro-1H-pyrazino[2,1-d][1,5]benzoxazepine-8-carbonitrile hydrochloride]	20 to 200 nM	> 70%	+++ (>100)	+ (from 10 to 30)	83.3 to 833 mL/min/kg
COC[C@@H]1C[C@@H]2CNCCN2c2cc(F)ccc2O1.Cl [Example 8, (4aR,6S)-10-Fluoro-6-(methoxymethyl)-2,3,4,4a,5,6-hexahydro-1H-pyrazino[2,1-d][1,5]benzoxazepine hydrochloride]	20 to 200 nM	> 70%	+++ (>100)	+++ (>100)	< 83.3 mL/min/kg
C#Cc1cc(F)c2c(c1)N1CCNC[C@H]1C[C@@H](COC)O2.O=C(O)C(O)C(O)C(=O)O [Example 36, (4aR,6S)-10-Ethynyl-8-fluoro-6-(methoxymethyl)-2,3,4,4a,5,6-hexahydro-1H-pyrazino[2,1-d][1,5]benzoxazepine; (2R,3R)-2,3-dihydroxybutanedioic acid]	200 to 1000 nM	50 to 70%	+ (from 10 to 30)	+ (from 10 to 30)	83.3 to 833 mL/min/kg
COC[C@@H]1C[C@@H]2CNCCN2c2cc(F)cc(C(F)F)c2O1.Cl [Example 9, (4aR,6S)-8-(Difluoromethyl)-10-fluoro-6-(methoxymethyl)-2,3,4,4a,5,6-hexahydro-1H-pyrazino[2,1-d][1,5]benzoxazepine hydrochloride]	< 20 nM	> 70%	+++ (>100)	+++ (>100)	< 83.3 mL/min/kg
COC[C@@H]1C[C@@H]2CNCCN2c2cccc(Cl)c2O1.Cl [Example 1, (4aR,6S)-8-Chloro-6-(methoxymethyl)-2,3,4,4a,5,6-hexahydro-1H-pyrazino[2,1-d][1,5]benzoxazepine hydrochloride]	< 20 nM	> 70%	+++ (>100)	+++ (>100)	< 83.3 mL/min/kg
COC[C@@H]1C[C@@H]2CNCCN2c2c(cc(F)c(F)c2F)O1.Cl [Example 47, (4aR,6S)-9,10,11-Trifluoro-6-(methoxymethyl)-2,3,4,4a,5,6-hexahydro-1H-pyrazino[2,1-d][1,5]benzoxazepine hydrochloride]	20 to 200 nM	> 70%	+++ (>100)	+++ (>100)	< 83.3 mL/min/kg
COC[C@@H]1C[C@@H]2CNCCN2c2cc(C)cc(F)c2O1 [Example 33, (4aR,6S)-8-Fluoro-6-(methoxymethyl)-10-methyl-2,3,4,4a,5,6-hexahydro-1H-pyrazino[2,1-d][1,5]benzoxazepine]	200 to 1000 nM	50 to 70%	+ (from 10 to 30)	+ (from 10 to 30)	< 83.3 mL/min/kg
COC[C@@H]1C[C@@H]2CNCCN2c2c(F)c(F)cc(C(F)(F)F)c2O1.Cl [Example 56, (4aR,6S)-10,11-Difluoro-6-(methoxymethyl)-8-(trifluoromethyl)-2,3,4,4a,5,6-hexahydro-1H-benzo[b]pyrazino[1,2-d][1,4]oxazepine hydrochloride]	20 to 200 nM	> 70%	+++ (>100)	+++ (>100)	< 83.3 mL/min/kg
COC[C@@H]1C[C@@H]2CNCCN2c2c(F)c(F)cc(Cl)c2O1.Cl [Example 16, (4aR,6S)-8-Chloro-10,11-difluoro-6-(methoxymethyl)-2,3,4,4a,5,6-hexahydro-1H-pyrazino[2,1-d][1,5]benzoxazepine hydrochloride]	< 20 nM	> 70%	+++ (>100)	+++ (>100)	< 83.3 mL/min/kg
COC[C@@H]1C[C@@H]2CNCCN2c2c(F)c(F)cc(C#N)c2O1.Cl [Example 28, (4aR,6S)-10,11-Difluoro-6-(methoxymethyl)-2,3,4,4a,5,6-hexahydro-1H-pyrazino[2,1-d][1,5]benzoxazepine-8-carbonitrile hydrochloride]	20 to 200 nM	> 70%	++ (from >30 to 100)	+ (from 10 to 30)	< 83.3 mL/min/kg
COC[C@@H]1C[C@@H]2CNCCN2c2cc(Cl)cc(Cl)c2O1 [Example 52, (4aR,6S)-8,10-Dichloro-6-(methoxymethyl)-2,3,4,4a,5,6-hexahydro-1H-pyrazino[2,1-d][1,5]benzoxazepine]	20 to 200 nM	> 70%	+++ (>100)	++ (from >30 to 100)	< 83.3 mL/min/kg
Cl.Fc1cc(Cl)c2c(c1)N1CCNC[C@H]1C[C@@H](COC(F)F)O2 [Example 24, (4aR,6S)-8-Chloro-6-(difluoromethoxymethyl)-10-fluoro-2,3,4,4a,5,6-hexahydro-1H-pyrazino[2,1-d][1,5]benzoxazepine hydrochloride]	20 to 200 nM	50 to 70%	+++ (>100)	++ (from >30 to 100)	83.3 to 833 mL/min/kg
COC[C@@H]1C[C@@H]2CNCCN2c2c(F)c(F)cc(C(F)F)c2O1.Cl [Example 26, (4aR,6S)-8-(Difluoromethyl)-10,11-difluoro-6-(methoxymethyl)-2,3,4,4a,5,6-hexahydro-1H-pyrazino[2,1-d][1,5]benzoxazepine hydrochloride]	< 20 nM	> 70%	+++ (>100)	+++ (>100)	< 83.3 mL/min/kg
